Experiments:
Format in all cases: physicochemical
[1] = Solubility in organic solvents
[2] = Brookfield viscosity of grafted siloxane derivatives
Protocol: (§1) The reactions were extremely exothermic and needed to be cooled by a dry ice bath once the temperature approached 30° C. For these reactions, an excess amount of terminal olefin substrate was used based on the equivalent weight (eqW) of hydrosiloxane. Reaction progress was monitored by FTIR as both the hydrosilane absorbance (2150 cm-1) and terminal olefin absorbance (1640 cm-1) disappeared while the carbonyl absorbance remained constant (1735 cm-1). Once the reaction was judged complete, the unreacted olefin starting material was removed by vacuum distillation. The resulting organofunctional siloxane oligomers were analyzed without further purification by 1H-NMR spectroscopy.
Into either a 50 or 100 ml three-necked, round-bottomed flask equipped with a magnetic stirrer, a thermocouple with a J-Kem controller, a heating mantle and a short path distillation apparatus with a nitrogen inlet was added the uC10 derivative and the hydrosilane oligomer. In most cases the reaction was run neat, however the uC10MEE-16-based reactions were two phase so that isopropanol (IPOH) was added to compatiblize the reactants. Once the catalyst was added (1 drop) at ambient temperatures, the temperature was carefully monitored. The reaction was gentle warmed by an air gun until about 30° C. when heating was discontinued and a dry ice bath was used to moderate the vigorous exotherm. Once the temperature had stabilized, then the heating mantle was used to hold the reaction temperature at 60° C. for the next few hours. The reaction's progress was easily monitored by FTIR as both the hydrosilane absorbance (2150 cm^−1) and the terminal olefin's absorbance (1640 cm^−1) disappeared while the carbonyl absorbance remained constant (1735 cm^−1). When the reactions were judged complete, they were typically subjected to reduced pressure to remove any excess reagents or solvents. The products were transferred into 2 oz glass bottles and remained liquids except for the uC16MEE-16-based materials that solidified. […]

[3] = Surface tension of grafted siloxane derivatives
Protocol: as §1

Solubility in polar organic solvents (in words) ([1]; polar organic solvents) | Solubility (wt %) MEK ([1]; solvent MEK) | Solubility (wt %) Acetone ([1]; solvent acetone) | Solubility (wt %) Acetonitrile ([1]; solvent acetonitrile) | Solubility (wt %) Ethylene Glycol ([1]; solvent ethylene glycol) | Solubility (wt %) Heptanes ([1]; solvent heptanes) | Solubility (wt %) Methanol ([1]; solvent methanol) | Viscosity (25° C.) [2] | Surface Tension (20° C.) [3] | SMILES
significantly more soluble | >50 wt % | >50 wt % | 13 wt % | 6 wt % | >50 wt % | 17 wt % | 7.1 | 22.6 mN/m | COC(=O)CCCCCCCCC[Si](C)(O[Si](C)(C)C)O[Si](C)(C)C [Compound 6]
– | – | – | – | – | – | – | 17 | 21.4 mN/m | COCCOCCOCCOC(=O)CCCCCCCCC[Si](C)(O[Si](C)(C)C)O[Si](C)(C)C [Compound 7]
– | – | – | – | – | – | – | 16 | 20.8 mN/m | C[Si](C)(C)O[Si](C)(CCCCCCCCCC(=O)OCCC(F)(F)C(F)(F)C(F)(F)C(F)(F)F)O[Si](C)(C)C [Compound 9]
